Assay results from PubChem BioAssay AID2060497 (Molecular Pharmacology Branch, DTP, NCI, 2025).

System: 317291-083-R-J1-PDC complex spheroids, viability
Assay: Anticancer human tumor 317291-083-R-J1-PDC patient-derived soft tissue sarcoma cell line growth inhibition [GQUAD]
Conditions: for IC50: curve of first compound; for viability, T/C: stronger effect = lower value; active = viability on the fitted dose curve at most 10% of control; inactive = the rest
How it was run: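 Multi-cell-type spheroids of tumor cells with HUVEC and mesenchymal stem cells, treated with drug combinations. Concentrations descend in half-log steps from near clinical Cmax, or from 10 microM where Cmax is unknown; viability read-out.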
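Also: spheroids exposed to compounds for one week before readout.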
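For viability, T/C in this document: percent viability relative to DMSO vehicle wells taken as 100%.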

C=CC(=O)N1CCN(c2nc(=O)n(-c3c(C)ccnc3C(C)C)c3nc(-c4c(O)cccc4F)c(F)cc23)C(C)C1 (configuration not stated) + CN(C)c1ccc(Nc2c3ccc(NC(=O)CCN4CCCC4)cc3nc3cc(NC(=O)CCN4CCCC4)ccc23)cc1
inactive: viability, T/C (second compound 0.0316 µM, first compound 0.0316 µM) 105% | viability, T/C (second compound 0.0316 µM, first compound 0.1 µM) 90.8% | viability, T/C (second compound 0.0316 µM, first compound 0.316 µM) 114% | viability, T/C (second compound 0.0316 µM, first compound 1 µM) 113% | viability, T/C (second compound 0.0316 µM, first compound 3.16 µM) 98.4% | viability, T/C (second compound 0.0316 µM, first compound 10 µM) 65.2% | viability, T/C (second compound 0.1 µM, first compound 0.0316 µM) 115% | viability, T/C (second compound 0.1 µM, first compound 0.1 µM) 100% | viability, T/C (second compound 0.1 µM, first compound 0.316 µM) 99.1% | viability, T/C (second compound 0.1 µM, first compound 1 µM) 107% | viability, T/C (second compound 0.1 µM, first compound 3.16 µM) 91.8% | viability, T/C (second compound 0.1 µM, first compound 10 µM) 70.8% | viability, T/C (second compound 0.316 µM, first compound 0.0316 µM) 81.5% | viability, T/C (second compound 0.316 µM, first compound 0.1 µM) 69.9% | viability, T/C (second compound 0.316 µM, first compound 0.316 µM) 73.2% | viability, T/C (second compound 0.316 µM, first compound 1 µM) 91.2% | viability, T/C (second compound 0.316 µM, first compound 3.16 µM) 82.9% | viability, T/C (second compound 0.316 µM, first compound 10 µM) 51.4% | viability, T/C (second compound 1 µM, first compound 0.0316 µM) 57% | viability, T/C (second compound 1 µM, first compound 0.1 µM) 44.1% | viability, T/C (second compound 1 µM, first compound 0.316 µM) 52.3% | viability, T/C (second compound 1 µM, first compound 1 µM) 81.2% | viability, T/C (second compound 1 µM, first compound 3.16 µM) 30.2% | viability, T/C (second compound 1 µM, first compound 10 µM) 22.5% | viability, T/C (second compound 3.16 µM, first compound 0.0316 µM) 32.1% | viability, T/C (second compound 3.16 µM, first compound 0.1 µM) 22% | viability, T/C (second compound 3.16 µM, first compound 0.316 µM) 29.2% | viability, T/C (second compound 3.16 µM, first compound 1 µM) 51.6% | viability, T/C (second compound 3.16 µM, first compound 3.16 µM) 42.4% | viability, T/C (second compound 3.16 µM, first compound 10 µM) 21.1% | viability, T/C (second compound 10 µM, first compound 0.0316 µM) 13.5% | viability, T/C (second compound 10 µM, first compound 0.1 µM) 15.1% | viability, T/C (second compound 10 µM, first compound 0.316 µM) 8.38% | viability, T/C (second compound 10 µM, first compound 1 µM) 8.02% | viability, T/C (second compound 10 µM, first compound 3.16 µM) 6.86% | viability, T/C (second compound 10 µM, first compound 10 µM) 23.1%
1420 nM: IC50 (second compound 1 µM)
< 31.6 nM: IC50 (second compound 3.16 µM) | IC50 (second compound 10 µM)
> 10000 nM: IC50 (second compound 0.0316 µM) | IC50 (second compound 0.1 µM) | IC50 (second compound 0.316 µM)
